Laboratory results as given in ChEMBL document CHEMBL1201861, “Genomics of Drug Sensitity in Cancer screening data, Wellcome Trust Sanger Institute”.

Legend:
Test in all cases: cells
Capan-2 = type: functional, cell-based, Homo sapiens; details: Homo sapiens, Capan-2;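 note: Capan-2 cell growth inhibition, read out with a viability assay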
Description: SANGER: Inhibition of human Capan-2 cell growth in a cell viability assay.

Detroit 562 = type: functional, cell-based, Homo sapiens; details: Homo sapiens, Detroit 562;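 note: growth inhibition of human Detroit 562 cells, read out by a cell viability assay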
Description: SANGER: Inhibition of human Detroit562 cell growth in a cell viability assay.

ES3 = type: functional, cell-based, Homo sapiens; details: Homo sapiens, ES3;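 note: growth inhibition of ES3 cells, read out with a cell viability assay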
Description: SANGER: Inhibition of human ES3 cell growth in a cell viability assay.

ES5 = type: functional, cell-based, Homo sapiens; details: Homo sapiens, ES5;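 note: growth inhibition of human ES5 cells, read out by a cell viability assay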
Description: SANGER: Inhibition of human ES5 cell growth in a cell viability assay.

FTC-133 = type: functional, cell-based, Homo sapiens; details: Homo sapiens, FTC-133
GAK = type: functional, cell-based, Homo sapiens; details: Homo sapiens, GAK;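 note: cell growth inhibition read out by a cell viability assay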
Description: SANGER: Inhibition of human GAK cell growth in a cell viability assay.

JAR = type: functional, cell-based, Homo sapiens; details: Homo sapiens, JAR;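 note: growth inhibition of human JAR cells determined with a cell viability assay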
Description: SANGER: Inhibition of human JAR cell growth in a cell viability assay.

KALS-1 = type: functional, cell-based, Homo sapiens; details: Homo sapiens, KALS-1;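 note: growth inhibition of KALS-1 cells, determined with a cell viability assay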
Description: SANGER: Inhibition of human KALS-1 cell growth in a cell viability assay.

KE-37 = type: functional, cell-based; details: Homo sapiens;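 note: growth inhibition of KE-37 cells, read out with a cell viability assay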
Description: SANGER: Inhibition of human KE-37 cell growth in a cell viability assay.

KG-1 = type: functional, cell-based; details: Homo sapiens;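 note: growth inhibition of KG-1 cells, read out by a cell viability assay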
Description: SANGER: Inhibition of human KG-1 cell growth in a cell viability assay.

KGN = type: functional, cell-based, Homo sapiens; details: Homo sapiens, KGN;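 note: growth inhibition of KGN cells, read out with a cell viability assay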
Description: SANGER: Inhibition of human KGN cell growth in a cell viability assay.

KOSC-2 = type: functional, cell-based, Homo sapiens; details: Homo sapiens, KOSC-2;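 note: growth inhibition of KOSC-2 cells, read out by a cell viability assay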
Description: SANGER: Inhibition of human KOSC-2 cell growth in a cell viability assay.

KS-1 = type: functional, cell-based, Homo sapiens; details: Homo sapiens, KS-1;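 note: growth inhibition of KS-1 cells, read out with a cell viability assay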
Description: SANGER: Inhibition of human KS-1 cell growth in a cell viability assay.

KY821 = type: functional, cell-based; details: Homo sapiens;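 note: growth inhibition of human KY821 cells, read out by a cell viability assay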
Description: SANGER: Inhibition of human KY821 cell growth in a cell viability assay.

LB771-HNC = type: functional, cell-based, Homo sapiens; details: Homo sapiens, LB771-HNC;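 note: growth inhibition of LB771-HNC human cells, read out with a cell viability assay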
Description: SANGER: Inhibition of human LB771-HNC cell growth in a cell viability assay.

LNCaP-Clone-FGC = type: functional, cell-based, Homo sapiens; details: Homo sapiens, LNCaP-Clone-FGC
Description: SANGER: Inhibition of human LNCaP-Clone-FGC cell growth in a cell viability assay.

LS-123 = type: functional, cell-based, Homo sapiens; details: Homo sapiens, LS-123
Description: SANGER: Inhibition of human LS-123 cell growth in a cell viability assay.

MDA-MB-361 = type: functional, cell-based, Homo sapiens; details: Homo sapiens, MDA-MB-361
MDA-MB-453 = type: functional, cell-based, Homo sapiens; details: Homo sapiens, MDA-MB-453
Description: SANGER: Inhibition of human MDA-MB-453 cell growth in a cell viability assay.

MKN-28 = type: functional, cell-based, Homo sapiens; details: Homo sapiens, MKN-28;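 note: cell viability assay read-out, IC50 reflects suppression of growth of human MKN-28 cells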
Description: SANGER: Inhibition of human MKN28 cell growth in a cell viability assay.

MZ7-mel = type: functional, cell-based, Homo sapiens; details: Homo sapiens, MZ7-mel;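 note: growth inhibition of human MZ7-mel cells, measured by a cell viability assay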
Description: SANGER: Inhibition of human MZ7-mel cell growth in a cell viability assay.

NCI-H2170 = type: functional, cell-based, Homo sapiens; details: Homo sapiens, NCI-H2170;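 note: cell viability assay measuring growth inhibition of human NCI-H2170 cancer cells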
Description: SANGER: Inhibition of human NCI-H2170 cell growth in a cell viability assay.

NCI-H23 = type: functional, cell-based, Homo sapiens; details: Homo sapiens, NCI-H23;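 note: cell viability assay measuring growth inhibition of NCI-H23 cells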
Description: SANGER: Inhibition of human NCI-H23 cell growth in a cell viability assay.

NCI-H747 = type: functional, cell-based; details: Homo sapiens;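 note: growth inhibition of human NCI-H747 cells, read out by a cell viability assay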
Description: SANGER: Inhibition of human NCI-H747 cell growth in a cell viability assay.

NKM-1 = type: functional, cell-based; details: Homo sapiens;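 note: growth inhibition of NKM-1 cells, read out with a cell viability assay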
Description: SANGER: Inhibition of human NKM-1 cell growth in a cell viability assay.

NOMO-1 = type: functional, cell-based; details: Homo sapiens;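 note: growth inhibition of human NOMO-1 cells measured by a cell viability assay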
Description: SANGER: Inhibition of human NOMO-1 cell growth in a cell viability assay.

ONS-76 = type: functional, cell-based, Homo sapiens; details: Homo sapiens, ONS-76;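 note: growth inhibition of human ONS-76 cells, read out with a cell viability assay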
Description: SANGER: Inhibition of human ONS-76 cell growth in a cell viability assay.

P12-Ichikawa = type: functional, cell-based; details: Homo sapiens
PC-14 = type: functional, cell-based, Homo sapiens; details: Homo sapiens, PC-14;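 note: cell viability assay measuring inhibition of PC-14 cell growth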
Description: SANGER: Inhibition of human PC-14 cell growth in a cell viability assay.

RH-1 = type: functional, cell-based, Homo sapiens; details: Homo sapiens, RH-1;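 note: growth inhibition of human RH-1 cells, read out with a cell viability assay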
Description: SANGER: Inhibition of human RH-1 cell growth in a cell viability assay.

RKO = type: functional, cell-based, Homo sapiens; details: Homo sapiens, RKO;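 note: growth inhibition of human RKO cells, read out with a cell viability assay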
Description: SANGER: Inhibition of human RKO cell growth in a cell viability assay.

RPMI-7951 = type: functional, cell-based, Homo sapiens; details: Homo sapiens, RPMI-7951
Description: SANGER: Inhibition of human RPMI-7951 cell growth in a cell viability assay.

RT-112 = type: functional, cell-based, Homo sapiens; details: Homo sapiens, RT-112
Description: SANGER: Inhibition of human RT-112 cell growth in a cell viability assay.

RXF 393 = type: functional, cell-based; details: Homo sapiens;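 note: growth inhibition of human RXF 393 cells, read out with a cell viability assay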
Description: SANGER: Inhibition of human RXF393 cell growth in a cell viability assay.

SAS = type: functional, cell-based, Homo sapiens; details: Homo sapiens, SAS;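 note: growth inhibition of SAS cells, read out with a cell viability assay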
Description: SANGER: Inhibition of human SAS cell growth in a cell viability assay.

SCC-25 = type: functional, cell-based, Homo sapiens; details: Homo sapiens, SCC-25;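 note: growth inhibition of SCC-25 cells, measured with a cell viability assay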
Description: SANGER: Inhibition of human SCC-25 cell growth in a cell viability assay.

SCC-9 = type: functional, cell-based, Homo sapiens; details: Homo sapiens, SCC-9;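 note: Read-out is a cell viability assay, with values giving inhibition of cell growth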
Description: SANGER: Inhibition of human SCC-9 cell growth in a cell viability assay.

SF-268 = type: functional, cell-based, Homo sapiens; details: Homo sapiens, SF-268;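 note: growth inhibition of SF-268 cells determined with a cell viability assay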
Description: SANGER: Inhibition of human SF268 cell growth in a cell viability assay.

SW780 = type: functional, cell-based, Homo sapiens; details: Homo sapiens, SW780;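 note: growth inhibition of the cells, read out with a cell viability assay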
Description: SANGER: Inhibition of human SW780 cell growth in a cell viability assay.

T47D = type: functional, cell-based, Homo sapiens; details: Homo sapiens, T47D;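 note: growth inhibition of human T47D cells, measured with a cell viability assay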
Description: SANGER: Inhibition of human T47D cell growth in a cell viability assay.

AM-38 = type: functional, cell-based, Homo sapiens; details: Homo sapiens, AM-38;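 note: growth inhibition of AM-38 cells of human origin, read out by a cell viability assay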
Description: SANGER: Inhibition of human AM-38 cell growth in a cell viability assay.

BHT-101 = type: functional, cell-based, Homo sapiens; details: Homo sapiens, BHT-101
Description: SANGER: Inhibition of human BHT-101 cell growth in a cell viability assay.

BHY = type: functional, cell-based, Homo sapiens; details: Homo sapiens, BHY;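 note: cell growth inhibition read out by a viability assay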
Description: SANGER: Inhibition of human BHY cell growth in a cell viability assay.

CAL-85-1 = type: functional, cell-based; details: Homo sapiens;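 note: growth inhibition of human CAL-85-1 cells, read out with a cell viability assay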
Description: SANGER: Inhibition of human CAL-85-1 cell growth in a cell viability assay.

TE-10 = type: functional, cell-based, Homo sapiens; details: Homo sapiens, TE-10;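 note: growth inhibition of TE-10 cells, measured by a cell viability assay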
Description: SANGER: Inhibition of human TE-10 cell growth in a cell viability assay.

VMRC-RCZ = type: functional, cell-based; details: Homo sapiens;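 note: growth inhibition measured with a cell viability assay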
Description: SANGER: Inhibition of human VMRC-RCZ cell growth in a cell viability assay.

CAS-1 = type: functional, cell-based, Homo sapiens; details: Homo sapiens, CAS-1;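 note: growth inhibition of CAS-1 cells, measured with a cell viability assay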
Description: SANGER: Inhibition of human CAS-1 cell growth in a cell viability assay.

COLO-678 = type: functional, cell-based, Homo sapiens; details: Homo sapiens, COLO-678
Description: SANGER: Inhibition of human COLO-678 cell growth in a cell viability assay.

K5 = type: functional, cell-based, Homo sapiens; details: Homo sapiens, K5
Description: SANGER: Inhibition of human K5 cell growth in a cell viability assay.

MKN-45 = type: functional, cell-based, Homo sapiens; details: Homo sapiens, MKN-45;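 note: growth inhibition of human MKN-45 cells, measured with a cell viability assay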
Description: SANGER: Inhibition of human MKN45 cell growth in a cell viability assay.

A 172 = type: functional, cell-based, Homo sapiens; details: Homo sapiens, A 172;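 note: growth inhibition of A172 cells, measured with a cell viability readout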
Description: SANGER: Inhibition of human A172 cell growth in a cell viability assay.

In the case of `COc1ccc(-c2ccc3c(N4CCOC[C@@H]4C)nc(N4CCOC[C@@H]4C)nc3n2)cc1CO` [AZD-8055], the IC50 (Capan-2) is reported as > 2000 nM, the IC50 (Detroit 562) is reported as 1190 nM and the IC50 (ES3) is reported as 1130 nM. For the same compound, the IC50 (ES5) was 93.5 nM, the IC50 (FTC-133) was > 2000 nM and the IC50 (GAK) was 1320 nM. For the same compound, the IC50 (JAR) was > 2000 nM, the IC50 (KALS-1) was > 2000 nM and the IC50 (KE-37) was 432 nM. The IC50 (KG-1) was 569 nM, the IC50 (KGN) was 610 nM and the IC50 (KOSC-2) was 1080 nM. The IC50 (KS-1) was 1250 nM, the IC50 (KY821) was 1570 nM and the IC50 (LB771-HNC) was > 2000 nM. It also gave an IC50 (LNCaP-Clone-FGC) of 353 nM, an IC50 (LS-123) of 1250 nM and an IC50 (MDA-MB-361) of 509 nM. For the same compound, the IC50 (MDA-MB-453) was 1160 nM, the IC50 (MKN-28) was > 2000 nM and the IC50 (MZ7-mel) was > 2000 nM. The IC50 (NCI-H2170) was > 2000 nM, the IC50 (NCI-H23) was 1560 nM and the IC50 (NCI-H747) was 760 nM. For the same compound, the IC50 (NKM-1) was 200 nM, the IC50 (NOMO-1) was > 2000 nM and the IC50 (ONS-76) was > 2000 nM. For the same compound, the IC50 (P12-Ichikawa) was 1030 nM, the IC50 (PC-14) was 590 nM and the IC50 (RH-1) was 1570 nM. The IC50 (RKO) was 868 nM, the IC50 (RPMI-7951) was 735 nM and the IC50 (RT-112) was 849 nM. The IC50 (RXF 393) was 929 nM, the IC50 (SAS) was > 2000 nM and the IC50 (SCC-25) was 1580 nM. The IC50 (SCC-9) was > 2000 nM, the IC50 (SF-268) was > 2000 nM and the IC50 (SW780) was 576 nM. The IC50 (T47D) was 275 nM, the IC50 (AM-38) was 1370 nM and the IC50 (BHT-101) was 408 nM. The IC50 (BHY) was 887 nM, the IC50 (CAL-85-1) was 1530 nM and the IC50 (TE-10) was > 2000 nM. The IC50 (VMRC-RCZ) was 785 nM, the IC50 (CAS-1) was > 2000 nM and the IC50 (COLO-678) was > 2000 nM.

With `O=c1cc(-c2cccc3c2Sc2ccccc2S3)oc(N2CCOCC2)c1` [KU-55933] the IC50 (Capan-2) was > 10000 nM, the IC50 (Detroit 562) was > 10000 nM and the IC50 (ES3) was > 10000 nM. For the same compound, the IC50 (ES5) was > 10000 nM, the IC50 (FTC-133) was > 10000 nM and the IC50 (GAK) was > 10000 nM. The IC50 (JAR) was > 10000 nM, the IC50 (K5) was > 10000 nM and the IC50 (KALS-1) was > 10000 nM. For the same compound, the IC50 (KE-37) was > 10000 nM, the IC50 (KG-1) was > 10000 nM and the IC50 (KGN) was > 10000 nM. For the same compound, the IC50 (KOSC-2) was > 10000 nM, the IC50 (KS-1) was > 10000 nM and the IC50 (LB771-HNC) was > 10000 nM. For the same compound, the IC50 (LNCaP-Clone-FGC) was > 10000 nM, the IC50 (LS-123) was > 10000 nM and the IC50 (MDA-MB-361) was > 10000 nM. The IC50 (MDA-MB-453) was > 10000 nM, the IC50 (MKN-28) was > 10000 nM and the IC50 (MKN-45) was > 10000 nM. The IC50 (MZ7-mel) was > 10000 nM, the IC50 (NCI-H2170) was > 10000 nM and the IC50 (NCI-H23) was > 10000 nM. The IC50 (NCI-H747) was > 10000 nM, the IC50 (NKM-1) was > 10000 nM and the IC50 (NOMO-1) was > 10000 nM. The IC50 (ONS-76) was > 10000 nM, the IC50 (P12-Ichikawa) was > 10000 nM and the IC50 (PC-14) was > 10000 nM. For the same compound, the IC50 (RH-1) was > 10000 nM, the IC50 (RKO) was > 10000 nM and the IC50 (RPMI-7951) was > 10000 nM. For the same compound, the IC50 (RT-112) was > 10000 nM, the IC50 (RXF 393) was > 10000 nM and the IC50 (SAS) was > 10000 nM. The IC50 (SCC-25) was > 10000 nM, the IC50 (SCC-9) was > 10000 nM and the IC50 (SF-268) was > 10000 nM. For the same compound, the IC50 (SW780) was > 10000 nM, the IC50 (T47D) was > 10000 nM and the IC50 (A 172) was > 10000 nM. For the same compound, the IC50 (AM-38) was > 10000 nM, the IC50 (BHT-101) was > 10000 nM and the IC50 (BHY) was > 10000 nM. The IC50 (CAL-85-1) was > 10000 nM, the IC50 (TE-10) was > 10000 nM and the IC50 (VMRC-RCZ) was > 10000 nM. The IC50 (CAS-1) was > 10000 nM and the IC50 (COLO-678) was > 10000 nM.
